Measured values published in the METLIN SMRT retention time set (Domingo-Almenara et al. 2019).

Experiment: gradient 5% acetonitrile 3 min, to 50% in 2 min, to 85% in 15 min, held 3 min, 100 µL/min
Conditions: column: Zorbax Extend-C18 2.1 x 50 mm; eluents: water / acetonitrile, 0.1% formic acid
Method in brief: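 Each retention time is based on an adduct peak selected computationally and verified by manual inspection. Measurements used HPLC–quadrupole time-of-flight mass spectrometry in positive and negative ionization mode on mixtures of ~100 pure standards. Chromatography ran on a Zorbax Extend-C18 column (2.1 × 50 mm, 1.8 μm) at 100 μL/min with water and acetonitrile, each containing 0.1% formic acid, and dead and dwell volumes of 40 μL and 900 μL.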

| Structure (SMILES) | RP-LC retention time |
| --- | --- |
| CCOc1ccc(CNC(=O)CCc2nnc3c4cc(-c5ccccc5)nn4ccn23)cc1 | 785 s |
| Cc1ccc(-c2nc3nc(C)cc(C)n3c2Nc2c(C)cccc2C)cc1 | 806 s |
| CCc1noc(-c2cccnc2N2CCCN(Cc3ccccc3Cl)CC2)n1 | 679 s |
| Cc1nn(CC(=O)NCCN2CCCCC2C)c(=O)c2nc(-c3ccccc3)sc12 (stereo not given) | 645 s |
| O=C1CCN(C(=O)C2CCN(C(=O)CC3CCCC3)CC2)CCCCCCN1 | 686 s |
| Brc1ccc(-c2ccc(CNCc3ccccn3)o2)cc1 | 703 s |
| Cc1nc([C@@H]2CN(C(=O)c3ccc(Cl)s3)C[C@H]2C(N)=O)n[nH]1 | 608 s |
| O=C(Nc1cccc2ccccc12)c1ccccc1 | 923 s |
| CCCn1cc(CCNS(=O)(=O)c2ccc(F)cc2F)c2cccnc21 | 848 s |
| Cc1cc(OCC(=O)N2CCC[C@H]2C(=O)O)c2c3c(c(=O)oc2c1)CCCC3 | 754 s |
| CCNC(=O)Nc1ccc(OCC(=O)NCc2cccc(OC)c2)nc1 | 669 s |
| CCn1cc(-c2nc(-c3ccc(F)cc3)no2)c(=O)c2cc(F)c(N3CCOCC3)cc21 | 951 s |
| O=C1NC2CCCCC2NC1CC(=O)N1CCN(C(c2ccccc2)c2ccccc2)CC1 (stereo not given) | 586 s |
| Cc1nn2c(CNC(=O)c3cccc(Br)c3)c(C)nc2s1 | 662 s |
| CSc1ccc(NC(=O)Nc2ccccc2C(N)=O)cc1 | 846 s |
| COc1ccc(-c2csc(NC(=O)c3ccc(Br)s3)n2)cc1OC | 990 s |
| Cc1ccc(-c2nc3cnccn3c2NCCC(=O)NCc2ccc(C)o2)cc1 | 710 s |
| Cc1cc(C)c(NC(=O)/C=C/c2ccccc2)c(C)c1 | 898 s |
| Cc1cc(C)c2c(n1)SCCN2C(=O)CCC(=O)NCc1ccc(Cl)cc1 | 696 s |

| Structure (SMILES) | RP-LC retention time |
| --- | --- |
| COc1ccc(NC(=O)Nc2cc(-c3cn4cccnc4n3)ccc2OC)cc1 | 651 s |
| O=c1c2oc3ccccc3c2ncn1Cc1nc(-c2ccc(F)cc2)no1 | 945 s |
| O=C(NCCN1CCOCC1)C1CCN(c2ccc3nnc(-c4ccccc4Cl)n3n2)CC1 | 596 s |
| Cc1nnc(C2CC3(CCN(CCc4ccccc4)CC3)CN2Cc2ccccc2)o1 (stereo not given) | 656 s |
| CCS(=O)(=O)N1CC(=O)N(c2cccc(F)c2)C(C)(C(=O)NC2CCCCC2)C1 (stereo not given) | 817 s |
| CCN1CCN(CCCNc2ccc(-c3nc(-c4ccc(C)cc4)no3)cn2)CC1 | 646 s |
| Cc1ccc2c(Nc3ccc(S(N)(=O)=O)cc3)c(C(=O)N3CCSCC3)cnc2n1 | 1370 s |
| CCc1ccc(CNC(=O)CC2CCN(C(=O)c3[nH]c(C)c(C)c3C)CC2)cc1 | 898 s |
| CSc1cccc(NC(=O)N2CCC(C)(C(=O)NCc3ccc(F)cc3)CC2)c1 | 884 s |
| Cc1nnc2n1CCC(N(C)C(=O)Cc1cccs1)CC2 (stereo not given) | 571 s |
| CN(C)[C@@H]1CN(C(=O)CC2CCCCC2)CC[C@@H]1CO | 615 s |
| CCC(=O)NCC12CCCC=C1NC(=O)CC2 (stereo not given) | 597 s |
| O=C(NC1CCCCCC1)C1CCN(c2cncnc2N2CCCCC2)CC1 | 712 s |
| O=C(CNC(=O)c1ccc(=O)[nH]c1)NCCOc1ccc(F)cc1 | 583 s |
| Cc1noc2ncnc(N3CCC(C(=O)N4CCCc5ccccc54)CC3)c12 | 865 s |
| O=S(=O)(Cc1cccc(F)c1)NCC1CCN(Cc2ccsc2)CC1 | 578 s |
| O=C(CSc1nnc(NC(=O)C2CCCCC2)s1)Nc1nccs1 | 747 s |
| COc1ccc(NC(=O)C2CCN(S(=O)(=O)c3ccc4[nH]c(=O)ccc4c3)CC2)cc1Cl | 752 s |
| O=C(Nc1ccc(F)cc1Cl)c1cc2n(n1)CCCC2 | 1010 s |

| Structure (SMILES) | RP-LC retention time |
| --- | --- |
| CCS(=O)(=O)Nc1ccc(C2(C(=O)NC(C)c3ccccc3)CCCCC2)cc1 (stereo not given) | 976 s |
| COc1ccc(CCNC(=O)C2CCN(S(C)(=O)=O)c3cc(Cl)ccc3O2)cc1 (stereo not given) | 889 s |
| CCn1ncc(NC(=O)c2ccc(OC)c(OC)c2)c(N2CCOCC2)c1=O | 722 s |
| CCCc1nnc(-c2cccnc2N2CCN(C(=O)c3ccoc3)CC2)o1 | 728 s |
| Cc1ccc(NC(=O)N2CCC(OC3CCN(S(C)(=O)=O)CC3)CC2)cc1 | 738 s |
| COCCc1noc(-c2cnc3nc(C)ccc3c2NCc2ccccc2C)n1 | 653 s |
| O=C(NCCc1ccccc1)N1CCN(C(=O)N2C[C@H]3C[C@H](C2)[C@H]2CCCC(=O)N2C3)CC1 | 629 s |
| CC(C)Cc1nnc(NC(=O)C2CCN(C(=O)c3cccc(F)c3)CC2)s1 | 780 s |
| Cc1ccc([N+](=O)[O-])cc1S(=O)(=O)Nc1ccc(-c2cn3ccccc3n2)cc1 | 664 s |
| CC(=O)N1C[C@@H]2CCCN3CCC[C@@H]([C@H]23)[C@H]1CCCC(=O)NCCCN(C)C1CCCCC1 | 547 s |
| Cc1ccc(NC(=O)C2CCN(S(=O)(=O)c3ccc4c(c3)CCCC(=O)N4)CC2)cc1F | 817 s |
| O=C(CN1C(=O)C2CCCCN2c2ccc(C(=O)N3CCCCC3)cc21)NCc1cccnc1 (stereo not given) | 615 s |
| CC(C)NC(=O)C1CCN(c2cncnc2N2CCOCC2)CC1 | 570 s |
| CCOc1ccc(C(=O)N2CCC3(C2)C(=O)Nc2ccc(OC)cc23)cc1 (stereo not given) | 737 s |
| COCCC(=O)NCCC1CCN(C(=O)Nc2cc(F)ccc2F)CC1 | 675 s |
| Cc1nc(Nc2ccc(F)cn2)sc1C(=O)N1CCN(C2CCCCC2)CC1 | 639 s |
| COc1ccc(OC)c(CNC(=O)c2cccc3c2SCCC3=O)c1 | 801 s |
| O=C(NCCC1CCN(C(=O)Nc2cc(F)ccc2F)CC1)c1cccs1 | 818 s |

Next, values leading:

| RP-LC retention time | Structure (SMILES) |
| --- | --- |
| 594 s | COc1ccc(OC)c(S(=O)(=O)N2CCN(c3ccccn3)CC2)c1 |
| 1080 s | CC1CCN(c2nccnc2Oc2ccc(C(=O)Nc3ccc4c(c3)OCCO4)cc2)CC1 |
| 626 s | O=C(c1cn[nH]c1)N1CCC(c2nc(CCOCC3CC3)no2)C1 (stereo not given) |
| 1040 s | CC1CCN(C(=O)CC2CCN(S(=O)(=O)c3ccc(Cl)s3)CC2)CC1 |
| 924 s | CC1(C(=O)NC2CCCCCCC2)CN(S(C)(=O)=O)CC(=O)N1c1ccccc1Cl (stereo not given) |
| 797 s | Cc1cc2nc(-c3ccccn3)c(-c3ccccn3)nc2cc1C |
| 817 s | Cc1ccc(S(=O)(=O)NC(C)c2nc(-c3ccc(NS(C)(=O)=O)cc3)no2)cc1 (stereo not given) |
| 882 s | CC(C)NC(=O)N1CCC2(CC1)CCC(O)(CN1CCc3ccccc31)CC2 |
| 623 s | CC(NC(=O)c1ccc2c(c1)OCO2)C(=O)Nc1nc2ccccc2[nH]1 (stereo not given) |
| 752 s | Cn1cc(S(=O)(=O)N2CCC(C(=O)NCc3ccccc3Cl)CC2)cc1C(=O)N1CCCC1 |
| 643 s | Cc1nnc2ccc(N3CCC(C(=O)NCCCOC(C)C)CC3)nn12 |
| 763 s | O=C(Cn1c(=O)c2cccn2c2ccccc21)NCc1cccs1 |
| 1310 s | CC(C)(C)c1csc(-c2csc(S(=O)(=O)Nc3ccc(F)c(Cl)c3)c2)n1 |
| 1150 s | O=C(NOCC1CC1)c1ccc(F)c(F)c1Nc1ccc(I)cc1Cl |
| 870 s | CCC(C)NC(=O)N1CCc2c(c(-c3nc(Cc4ccccc4)no3)nn2C)C1 (stereo not given) |
| 766 s | O=C(COc1ccccc1F)Nc1nnc(C2CCCCC2)o1 |
| 1050 s | CCCCn1cc(S(=O)(=O)NCc2cccc(C(F)(F)F)c2)c2cccnc21 |

| RP-LC retention time | Structure (SMILES) |
| --- | --- |
| 644 s | CCN(CC)C(=O)c1ccc2c(c1)ncn2CCNC(=O)Nc1ccc(Br)cc1 |
| 626 s | COCC(=O)N(C)CCc1noc(-c2ccc(C(=O)N3CCCC3)cc2)n1 |
| 646 s | O=C(CN1c2ccc(F)cc2-c2ccccc2S1(=O)=O)NCc1cccnc1 |
| 940 s | CCOc1ccc(CC(=O)NC2(c3nc(CC)no3)CCCCC2)cc1 |
| 875 s | COc1ccc(CCNC(=O)c2cccc3c2C(=O)N(CC2CCCO2)C3)c(OC)c1OC (stereo not given) |
| 707 s | COC(=O)[C@H](CCSC)NC(=O)c1cccc(-n2cnnn2)c1 |
| 836 s | Cc1ccc(NC(=O)C2CCN(S(=O)(=O)c3cc(C(=O)N4CCCC4)n(C)c3)CC2)cc1C |
| 1050 s | CCOC(=O)c1ccc(NC(=O)c2cnc(-c3ccc(C)cc3)nc2-c2ccncc2)cc1 |
| 915 s | CCOc1ccc(N2C(=O)N(c3ccc(Cl)c(Cl)c3)C3CS(=O)(=O)CC32)cc1 (stereo not given) |
| 676 s | O=C(Nc1ccc(Cl)c(N2CCCS2(=O)=O)c1)c1ccno1 |
| 1150 s | CCCCn1nnc(NCc2ccc(-c3cccc(Cl)c3)o2)n1 |
| 639 s | COCCN1C(=O)c2cccn2CC1CNC(=O)CC(C)C (stereo not given) |
| 737 s | CCn1nccc1C(=O)N1CCCN(C2=NS(=O)(=O)C(c3ccc(F)cc3)=C2C)CC1 |
| 855 s | Cc1ccc(S(=O)(=O)N2C(=O)CCC2C(=O)NC2CCCC2)cc1C (stereo not given) |
| 655 s | Cc1cccc(NC(=O)N2CCCC2C(=O)NC2CC2)c1 (stereo not given) |
| 975 s | CCn1c(=O)sc2cc(S(=O)(=O)N3CCC(C(=O)Nc4cccc(SC)c4)CC3)ccc21 |
| 1260 s | O=C(COc1ccc(Cl)cc1)Nc1ccc(-c2nc(-c3ccc(F)cc3)no2)cc1 |
